Assay results reported in patent US4001263A, “5-Aryl-1,2,3,4-tetrahydro-γ-carbolines” (Pfizer Inc., priority 1975, dated 1977).
Structures can show the parent of a compound that is named as a salt. Where two headings read alike, the source gives them in different places.

Tested on: amphetamine-induced symptoms in rats
Assay: antagonism of amphetamine-induced symptoms in rats (block of characteristic amphetamine cage movement behavior)
Type: in vivo
Conditions: Rattus norvegicus, ip
Text: The tranquilizing agents of the present invention are characterized by relief of such schizophrenic manifestations in humans as hallucinations, hostility, suspiciousness, emotional or social withdrawal, anxiety, agitation and tension. Standard procedures of detecting and comparing tranquilizing activity of compounds in this series and for which there is an excellent correlation with human efficacy is the antagonism of amphetamine-induced symptoms in rats test, as taught by A. Weissman, et al., J. Pharmacol. Exp. Ther., 151, 339 (1966) and by Quinton, et al.,Nature, 200, 178 (1963).
The effects of the compounds of the present invention on prominent amphetamine-induced symptoms were studied in rats by a rating scale modeled after the one reported by Quinton and Halliwell, and Weissman. Groups of five rats were placed in a covered plastic cage measuring approximately 26 cm. × 42 cm. × 16 cm. After a brief period of acclimation in the cage, the rats in each groups were treated intraperitoneally (i.p.) with the test compound. […] On the basis of dose-response data after amphetamine it was possible to determine the effective dose of the compound necessary to antagonize or block the characteristic amphetamine behavior of cage movement for 50 percent of the rats tested (ED50). The time of rating chosen coincides with the peak action of amphetamine which is 60-80 min. after treatment with this agent.
Employing the above-described procedure, the following compounds were tested for their ability to block the behavior effects of amphetamine, the results being reported as the ED50 in mg./kg. at the indicated times: […]

[1] = rats, i.p., d-amphetamine sulfate 5 mg./kg. i.p. given 1 hr. after test compound, read-out: ED50 to antagonize or block amphetamine behavior, 1 hr.
[2] = rats, i.p., d-amphetamine sulfate 5 mg./kg. i.p. given 5 hrs. after test compound, read-out: ED50 to antagonize or block amphetamine behavior, 5 hrs.
[3] = rats, i.p., d-amphetamine sulfate 5 mg./kg. i.p. given 24 hrs. after test compound, read-out: ED50 to antagonize or block amphetamine behavior, 24 hrs.

| SMILES | ED50 [1] | ED50 [2] | ED50 [3] | ED50 (1 h, read-out: ED50 to antagonize or block amphetamine behavior, 1 hr.) |
| --- | --- | --- | --- | --- |
| CC(C)(C)CCN1CCc2c(c3cc(F)ccc3n2-c2ccc(F)cc2)C1 [F, F, (CH3)3C(CH2)2, 8-fluoro-5-(p-fluorophenyl)-2-(3,3-dimethyl-n-buty)-1,2,3,4-tetrahydro-γ-carboline] | 1 to 3.2 mg/kg | > 10 mg/kg | > 10 mg/kg | – |
| Fc1ccc(C=CCCN2CCc3c(c4cc(F)ccc4n3-c3ccc(F)cc3)C2)cc1 [F, F, p-FC6H4CHCH(CH2)2, 8-Fluoro-5-(p-fluorophenyl)-2-[4-(p-fluorophenyl)-3-butenyl]-1,2,3,4-tetrahydro-γ-carboline] | 3.2 to 10 mg/kg | 1 to 3.2 mg/kg | > 3.2 mg/kg | – |
| CN1CCc2c(c3cc(F)ccc3n2-c2ccccc2)C1 [F, H, CH3] | 3.2 to 10 mg/kg | – | – | – |
| CN1CCc2c(c3cc(Cl)ccc3n2-c2ccccc2)C1 [Cl, H, CH3, 8-Chloro-5-phenyl-2-methyl-1,2,3,4-tetrahydro-γ-carboline hydrochloride] | 3.2 to 10 mg/kg | – | – | – |
| CN(C)CCCN1c2ccccc2Sc2ccc(Cl)cc21 [chlorpromazine, reference compound] | – | – | – | 7 mg/kg |
| CCN1CCc2c(c3cc(Cl)ccc3n2-c2ccccc2)C1 [Cl, H, C2H5] | 3.2 to 10 mg/kg | – | – | – |
| CN1CCc2c(c3cc(Br)ccc3n2-c2ccccc2)C1 [Br, H, CH3] | 3.2 to 10 mg/kg | – | – | – |
| c1ccc(CN2CCc3c(c4ccccc4n3-c3ccccc3)C2)cc1 [H, H, CH2C6H5, 5-phenyl-2-benzyl-1,2,3,4-tetrahydro-γ-carboline, reference compound] | > 32 mg/kg | – | – | – |
| CN1CCc2c(c3cc(F)ccc3n2-c2ccc(F)cc2)C1 [F, F, CH3, 8-Fluoro-5-(p-fluorophenyl)-2-methyl-1,2,3,4-tetrahydro-γ-carboline hydrochloride] | 1 to 3.2 mg/kg | – | – | – |
| CCN1CCc2c(c3cc(F)ccc3n2-c2ccc(F)cc2)C1 [F, F, C2H5, 8-Fluoro-5-(p-fluorophenyl)-2-ethyl-1,2,3,4-tetrahydro-γ-carboline hydrochloride] | 3.2 to 10 mg/kg | > 10 mg/kg | > 10 mg/kg | – |
| CN1CCc2c(c3ccccc3n2-c2ccccc2)C1 [H, H, CH3, 5-phenyl-2-methyl-1,2,3,4-tetrahydro-γ-carboline, reference compound] | 10 to 32 mg/kg | – | – | – |
| CCCN1CCc2c(c3cc(F)ccc3n2-c2ccc(F)cc2)C1 [F, F, n-C3H7, 8-fluoro-5-(p-fluorophenyl)-2-n-propyl-1,2,3,4-tetrahydro-γ-carboline] | 3.2 to 10 mg/kg | > 10 mg/kg | > 3.2 mg/kg | – |
